Assays:
BRD4 (BD1) = target: T1, BRD4 (BD1) (Homo sapiens, UniProt O60885); experiment: Binding assay BRD4/acetylated peptide H4 (TR-FRET protein-protein interaction assay)
T1 construct: with relatively long constructs also being possible, preferably amino acids 44-168; made in house; host or cells: E. coli
Procedure, shortened: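 Displacement of biotin-Ac-H4 peptide from His6-tagged BRD4(BD1), final usually 10 nM, read as Eu-streptavidin to anti-His-XL665 TR-FRET (665/620 nm). Compounds tested at 11 doses up to 20 μM in duplicate, pH 7.5 HEPES, 22 °C then 4 °C incubation; IC50 by 4-parameter regression.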

MOLM-13 cells = experiment: Cell proliferation assay (alamarBlue), MOLM-13; assay type: cell-based; conditions: Homo sapiens, 96 hours incubation, inhibition of cell proliferation
Procedure, shortened: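 IC50 = concentration giving 50% growth inhibition relative to buffer-treated cells, after subtracting baseline fluorescence taken before dosing. Compound applied at 1E-5 to 1E-8 M for 96 h at 37 °C in RPMI1640 with 10% FCS; alamarBlue signal at 530/590 nm.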

B16F10 cells = experiment: Cell proliferation assay (alamarBlue), B16F10; assay type: cell-based; conditions: Mus musculus, B16-F10, 96 hours incubation, inhibition of cell proliferation
Experimental: (§1) In accordance with the invention, the capability of the substances to inhibit cell proliferation was determined Cell viability was determined using the alamarBlue® reagent (Invitrogen) in a Victor X3 Multilabel Reader (Perkin Elmer). The excitation wavelength was 530 nm and the emission wavelenth […].
The B16F10 cells (ATCC, CRL-6475) were sown at a concentration of 300-500 cells/well in 100 μl growth medium (DMEM with phenol red, 10% FCS) on 96-well microtitre plates.
(§2) After an overnight incubation at 37° C., the fluorescence values (CI values) were determined. The plates were then treated with various substance dilutions (1E-5 M, 3E-6 M, 1E-6M, 3E-7 M, 1E-7 M, 3E-8 M, 1E-8 M) and incubated at 37° C. for 72 (MV4-11-, LOX-IMVI cells), 96 (MOLM-13-, B16F10-, MDA-MB-431-, Caov-3 cells), 120 (MOLP-8-, KMS-12-PE cells) or 168 (LAPC-4 cells) hours. The fluorescence values (CO values) were then determined. For the data analysis, the CI values were subtracted from the CO values and the results were compared between cells treated with different dilutions of the substance or with buffer solution only. These were used to calculate the IC 50 values (substance concentration required for 50% inhibition of cell proliferation).

LAPC-4 cells = experiment: Cell proliferation assay (alamarBlue), LAPC-4; assay type: cell-based; conditions: Homo sapiens, LAPC4; inhibition of cell proliferation, LAPC-4 (prostate cancer), 1 nM methyltrienolone, 168 hours
Experimental: as §1
The LAPC-4 cells (ATCC, PTA-1441TM) were sown at a concentration of 4000 cells/well in 100 μl growth medium (RPMI1640, 2 mM L-glutamine, 10% cFCS) on 96-well microtitre plates. A day later, the LAPC-4 cells were treated with 1 nM methyltrienolone and various substance dilutions.
as §2

MDA-MB-231 cells = experiment: Cell proliferation assay (alamarBlue), MDA-MB-231; assay type: cell-based; conditions: Homo sapiens; inhibition of cell proliferation, MDA-MB-231 (breast carcinoma), 96 hours
Experimental: as §1
The MDA-MB-231 cells (DSMZ, ACC 732) were sown at a concentration of 4000 cells/well in 100 μl growth medium (DMEM/Ham's F12 medium, 10% FCS) on 96-well microtitre plates. The Caov-3 cells (ATCC, HTB-75) were sown at a concentration of 2000 cells/well in 100 μl growth medium (MEM Earle's medium, 10% FCS) on 96-well microtitre plates.
as §2

MV4-11 cells = experiment: Cell proliferation assay (alamarBlue), MV4-11; assay type: cell-based; conditions: Homo sapiens, 72 hours incubation, inhibition of cell proliferation
Procedure, shortened: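 Cells seeded at 5000/well in RPMI1640 + 10% FCS, incubated overnight at 37° C, then treated with compound (1E-5 to 1E-8 M) for 72 h at 37° C. Viability by alamarBlue fluorescence (ex 530/em 590 nm); pre-treatment readings subtracted, IC50 derived versus buffer-treated cells.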

LOX-IMVI cells = experiment: Cell proliferation assay (alamarBlue), LOX-IMVI; assay type: cell-based; conditions: Homo sapiens, 72 hours incubation, inhibition of cell proliferation
Procedure, shortened: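 alamarBlue fluorescence (530 nm excitation, 590 nm emission) measured before dosing and after 72 h at 37° C exposure to 1E-5–1E-8 M compound; 1000 cells/well plated in RPMI1640/10% FCS the night before. IC50 from baseline-corrected signal relative to buffer-treated wells.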

MOLP-8 cells = experiment: Cell proliferation assay (alamarBlue), MOLP-8; assay type: cell-based; conditions: Homo sapiens, 120 hours incubation, inhibition of cell proliferation
Procedure, shortened: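 MOLP-8 cells in RPMI1640 with 20% FCS, 4000 cells/well, treated overnight after seeding with substance at 1E-5 to 1E-8 M for 120 h at 37° C. Viability read by alamarBlue fluorescence (ex 530, em 590); pre-treatment values subtracted, compared with buffer-only cells to derive IC50.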

KMS-12-PE cells = experiment: Cell proliferation assay (alamarBlue), KMS-12-PE; assay type: cell-based; conditions: Homo sapiens, 120 hours incubation, inhibition of cell proliferation
Procedure, shortened: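 KMS-12-PE myeloma cells in RPMI1640 with 20% FCS were exposed to compound (1E-5 to 1E-8 M) for 120 h at 37° C. AlamarBlue fluorescence (ex 530, em 590 nm) read before and after treatment; the difference versus buffer-treated cells gave IC50.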

Caov-3 cells = experiment: Cell proliferation assay (alamarBlue), Caov-3; assay type: cell-based; conditions: Homo sapiens; inhibition of cell proliferation, Caov-3 (ovarian carcinoma), 96 hours
Procedure, shortened: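 Caov-3 (MEM Earle's, 10% FCS, 2000 cells/well) and MDA-MB-231 (DMEM/Ham's F12, 10% FCS, 4000 cells/well) were treated after overnight attachment with 1E-5 to 1E-8 M compound. Caov-3 exposure was 96 h. alamarBlue fluorescence (ex 530, em 590 nm) was read after background subtraction of day-0 values, and IC50 calculated versus buffer-treated cells.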

Compound	IC50 (BRD4 (BD1))	IC50 (MOLM-13 cells)	IC50 (B16F10 cells)	IC50 (MDA-MB-231 cells)	IC50 (MV4-11 cells)	IC50 (LAPC-4 cells)	IC50 (LOX-IMVI cells)	IC50 (MOLP-8 cells)	IC50 (KMS-12-PE cells)	IC50 (Caov-3 cells)
CNC(=O)N1N=C(c2ccc(Cl)cc2)c2cc(N3CCN(C)CC3)ccc2CC1C (racemic) [Example 12, (±)-1-(4-Chlorophenyl)-N,4-dimethyl-8-(4-methylpiperazin-1-yl)-4,5-dihydro-3H-2,3-benzodiazepine-3-carboxamide]	540 nM	1610 nM	1320 nM	1850 nM		870 nM				
CNC(=O)N1N=C(c2ccc(-c3ccnn3C)cc2)c2cc(OC)ccc2C[C@@H]1C [Example 19, (4S)-8-methoxy-N,4-dimethyl-1-[4-(1-methyl-1H-pyrazol-5-yl)phenyl]-4,5-dihydro-3H-2,3-benzodiazepine-3-carboxamide]	40 nM	170 nM			270 nM	110 nM	650 nM	270 nM	270 nM	410 nM
CNC(=O)N1N=C(c2ccc(Cl)cc2)c2cc(N3CCOCC3)ccc2C[C@@H]1C [Example 11.1, (4S)-1-(4-Chlorophenyl)-N,4-dimethyl-8-(morpholin-4-yl)-4,5-dihydro-3H-2,3-benzodiazepine-3-carboxamide]	80 nM	570 nM		1110 nM		310 nM				
CNC(=O)N1N=C(c2ccc(Cl)cc2)c2cc(OC(F)(F)F)ccc2C[C@H]1C [Example 1.2, (4R)-1-(4-Chlorophenyl)-N,4-dimethyl-8-(trifluoromethoxy)-4,5-dihydro-3H-2,3-benzodiazepine-3-carboxamide]	2500 nM	> 10000 nM	> 10000 nM	> 10000 nM		5170 nM				
CNC(=O)N1N=C(c2ccc(-c3cnoc3)cc2)c2cc(OC)ccc2C[C@@H]1C [Example 18, (4S)-1-[4-(4-Isoxazolyl)phenyl]-8-methoxy-N,4-dimethyl-4,5-dihydro-3H-2,3-benzodiazepine-3-carboxamide]	160 nM	250 nM		280 nM	300 nM		760 nM	340 nM	350 nM	480 nM
CNC(=O)N1N=C(c2cccnc2)c2cc(OC)ccc2CC1C (racemic) [Example 14, (±)-8-Methoxy-N,4-dimethyl-1-(pyridin-3-yl)-4,5-dihydro-3H-2,3-benzodiazepine-3-carboxamide]	590 nM	3070 nM	2630 nM	3640 nM		1650 nM				
CNC(=O)N1N=C(c2ccc(Cl)cc2)c2cc(-c3ccc(S(=O)(=O)NC)cc3)ccc2CC1C (racemic) [Example 10, (±)-1-(4-chlorophenyl)-N,4-dimethyl-8-{4-[(methylamino)sulphonyl]phenyl}-4,5-dihydro-3H-2,3-benzodiazepine-3-carboxamide]	160 nM	310 nM	270 nM	260 nM		120 nM				
CNC(=O)N1N=C(c2ccc(-c3ccc(C(=O)O)s3)cc2)c2cc(OC)c(OC)cc2CC1C (racemic) [Example 5, (±)-5-(4-{7,8-dimethoxy-4-methyl-3-[(methylamino)carbonyl]-4,5-dihydro-3H-2,3-benzodiazepin-1-yl}phenyl)thiophene-2-carboxylic acid]	30 nM	820 nM	690 nM	1350 nM		270 nM				
CNC(=O)N1N=C(c2ccc(Cl)cc2)c2cc(OC(F)(F)F)c(Cl)cc2CC1C (racemic) [Example 15]	870 nM	3450 nM		6230 nM						
CNC(=O)N1N=C(c2ccc(-c3c(C)noc3C)cc2)c2cc(OC)ccc2C[C@@H]1C [Example 20, (4S)-1-[4-(3,5-dimethyl-4-isoxazolyl)phenyl]-8-methoxy-N,4-dimethyl-4,5-dihydro-3H-2,3-benzodiazepine-3-carboxamide]	70 nM	190 nM		220 nM	140 nM	120 nM	330 nM	120 nM	110 nM	240 nM

Second part, led by results:

IC50 (BRD4 (BD1))	IC50 (MOLM-13 cells)	IC50 (B16F10 cells)	IC50 (MDA-MB-231 cells)	IC50 (MV4-11 cells)	Compound	IC50 (LAPC-4 cells)	IC50 (LOX-IMVI cells)	IC50 (MOLP-8 cells)	IC50 (KMS-12-PE cells)	IC50 (Caov-3 cells)
210 nM	1440 nM	920 nM	1300 nM		CNC(=O)N1N=C(c2ccc(Cl)cc2)c2cc(N3CCCCC3)ccc2CC1C (racemic) [Example 13]	900 nM				
40 nM	170 nM		210 nM	130 nM	CNC(=O)N1N=C(c2ccc(N3CCOCC3)cc2)c2cc(OC)ccc2C[C@@H]1C [Example 17, (4S)-8-Methoxy-N,4-dimethyl-1-[4-(morpholin-4-yl)phenyl]-4,5-dihydro-3H-2,3-benzodiazepine-3-carboxamide]	100 nM	300 nM	110 nM	110 nM	220 nM
2510 nM	7740 nM		10000 nM		CNC(=O)N1N=C(c2ccc(Cl)cc2)c2cc(N3CCOCC3)ccc2C[C@H]1C [Example 11.2, (4R)-1-(4-Chlorophenyl)-N,4-dimethyl-8-(morpholin-4-yl)-4,5-dihydro-3H-2,3-benzodiazepine-3-carboxamide]					
50 nM	220 nM		470 nM	270 nM	CNC(=O)N1N=C(c2ccc(-n3nc(C)cc3C)cc2)c2cc(OC)ccc2C[C@@H]1C [Example 16, (4S)-1-[4-(3,5-Dimethyl-1H-pyrazol-1-yl)phenyl]-8-methoxy-N,4-dimethyl-4,5-dihydro-3H-2,3-benzodiazepine-3-carboxamide]	110 nM	640 nM	290 nM	250 nM	370 nM
10 nM	40 nM			30 nM	CNC(=O)N1N=C(c2ccc(-n3nc(-c4ccccn4)cc3C3CC3)cc2)c2cc(OC)ccc2C[C@@H]1C [Example 28, (4S)-1-{4-[5-cyclopropyl-3-(pyridin-2-yl)-1H-pyrazol-1-yl]phenyl}-8-methoxy-N,4-dimethyl-4,5-dihydro-3H-2,3-benzodiazepine-3-carboxamide]	20 nM	40 nM	20 nM	30 nM	40 nM

From patent publication US9890147B2 (BAYER PHARMA AKTIENGESELLSCHAFT, priority 2012, dated 2018)
